Measured values published in ChEMBL document CHEMBL4043145, “Pyridine-pyrimidine amides that prevent HGF-induced epithelial scattering by two distinct mechanisms” (Bioorg Med Chem Lett, 2017).

Assays:
[1] = system: MDCK-II; assay: Antimigratory activity against MDCK2 cells assessed as inhibition of HGF-induced cell scattering at 1 uM pretreated for 18 hrs followed by HGF addition measured after 20 to 24 hrs by crystal violet staining-based assay relative to control; assay type: functional; settings: Canis lupus familiaris
[2] = Antimigratory activity against human SW.71 cells at 10 uM after 18 hrs by crystal violet staining-based assay relative to control; assay type: functional; settings: SW.71, 18 h
[3] = system: MCF7; assay: Antiproliferative activity against human MCF7 cells at 10 uM relative to control; assay type: functional, cell-based
[4] = system: BT-20; assay: Antiproliferative activity against human BT20 cells; assay type: functional
[5] = Antiproliferative activity against human HER218 cells; assay type: functional
[6] = system: Hs-578T; assay: Antiproliferative activity against human Hs 578T cells; assay type: functional
[7] = system: MCF7; assay: Antiproliferative activity against human MCF7 cells; assay type: functional
[8] = system: MDA-MB-231; assay: Antiproliferative activity against human MDA-MB-231/ATCC cells; assay type: functional
[9] = system: MDA-MB-468; assay: Antiproliferative activity against human MDA-MB-468 cells; assay type: functional
[10] = system: T47D; assay: Antiproliferative activity against human T47D cells; assay type: functional
[11] = system: SF-268; assay: Antiproliferative activity against human SF268 cells; assay type: functional
[12] = system: SF-539; assay: Antiproliferative activity against human SF539 cells; assay type: functional
[13] = system: SF-295; assay: Antiproliferative activity against human SF295 cells; assay type: functional
[14] = system: SNB-19; assay: Antiproliferative activity against human SNB19 cells; assay type: functional
[15] = system: U-251; assay: Antiproliferative activity against human U251 cells; assay type: functional
[16] = system: COLO 205; assay: Antiproliferative activity against human COLO205 cells; assay type: functional
[17] = system: HCC 2998; assay: Antiproliferative activity against human HCC2998 cells; assay type: functional
[18] = system: HCT-116; assay: Antiproliferative activity against human HCT116 cells; assay type: functional
[19] = system: HCT-15; assay: Antiproliferative activity against human HCT15 cells; assay type: functional
[20] = system: HT-29; assay: Antiproliferative activity against human HT-29 cells; assay type: functional
[21] = system: KM12; assay: Antiproliferative activity against human KM12 cells; assay type: functional
[22] = system: SW480; assay: Antiproliferative activity against human SW480 cells; assay type: functional
[23] = system: SW-620; assay: Antiproliferative activity against human SW620 cells; assay type: functional
[24] = system: AN3-CA; assay: Antiproliferative activity against human AN3CA cells; assay type: functional
[25] = system: HEC-1-A; assay: Antiproliferative activity against human Hec1A cells; assay type: functional
[26] = system: MFE-280; assay: Antiproliferative activity against human MFE280 cells; assay type: functional
[27] = system: MFE-296; assay: Antiproliferative activity against human MFE296 cells; assay type: functional
[28] = system: RL95-2; assay: Antiproliferative activity against human RL95-2 cells; assay type: functional
[29] = system: SK-UT-1; assay: Antiproliferative activity against human SK-UT-1 cells; assay type: functional
[30] = system: T98G; assay: Antiproliferative activity against human T98G cells; assay type: functional
[31] = system: U-87 MG; assay: Antiproliferative activity against human U87MG cells; assay type: functional, U-87MG ATCC
[32] = system: CCRF-CEM; assay: Antiproliferative activity against human CCRF-CEM cells; assay type: functional
[33] = system: HL-60(TB); assay: Antiproliferative activity against human HL-60(TB) cells; assay type: functional
[34] = system: K562; assay: Antiproliferative activity against human K562 cells; assay type: functional
[35] = system: MOLT-4; assay: Antiproliferative activity against human MOLT4 cells; assay type: functional
[36] = system: RPMI-8226; assay: Antiproliferative activity against human RPMI8226 cells; assay type: functional
[37] = system: SR; assay: Antiproliferative activity against human SR cells; assay type: functional
[38] = system: HepG2; assay: Antiproliferative activity against human HepG2 cells; assay type: functional
[39] = system: A549; assay: Antiproliferative activity against human A549 cells; assay type: functional
[40] = system: NCI-H1975; assay: Antiproliferative activity against human NCI-H1975 cells; assay type: functional
[41] = system: LOX IMVI; assay: Antiproliferative activity against human LOXIMVI cells; assay type: functional
[42] = system: M14; assay: Antiproliferative activity against human M14 cells; assay type: functional
[43] = system: Malme-3M; assay: Antiproliferative activity against human MALME-3M cells; assay type: functional
[44] = system: MDA-MB-435; assay: Antiproliferative activity against human MDA-MB-435 cells; assay type: functional
[45] = system: SK-MEL-2; assay: Antiproliferative activity against human SK-MEL-2 cells; assay type: functional
[46] = system: SK-MEL-5; assay: Antiproliferative activity against human SK-MEL-5 cells; assay type: functional
[47] = system: UACC-62; assay: Antiproliferative activity against human UACC62 cells; assay type: functional
[48] = system: A549; assay: Antiproliferative activity against human A549/ATCC cells; assay type: functional
[49] = system: HOP-62; assay: Antiproliferative activity against human HOP62cells; assay type: functional
[50] = system: HOP-92; assay: Antiproliferative activity against human HOP92 cells; assay type: functional
[51] = system: NCI-H226; assay: Antiproliferative activity against human NCI-H226 cells; assay type: functional
[52] = system: NCI-H23; assay: Antiproliferative activity against human NCI-H23 cells; assay type: functional
[53] = system: NCI-H322M; assay: Antiproliferative activity against human NCI-H322M cells; assay type: functional
[54] = system: NCI-H460; assay: Antiproliferative activity against human NCI-H460 cells; assay type: functional
[55] = system: NCI-H522; assay: Antiproliferative activity against human NCI-H522 cells; assay type: functional
[56] = system: A2780; assay: Antiproliferative activity against human A2780 cells; assay type: functional, cell-based
[57] = system: IGROV-1; assay: Antiproliferative activity against human IGROV1 cells; assay type: functional
[58] = system: NCI/ADR-RES; assay: Antiproliferative activity against human NCI/ADR-RES cells; assay type: functional
[59] = system: OVCAR-3; assay: Antiproliferative activity against human OVCAR3 cells; assay type: functional
[60] = system: OVCAR-4; assay: Antiproliferative activity against human OVCAR4 cells; assay type: functional
[61] = system: OVCAR-5; assay: Antiproliferative activity against human OVCAR5 cells; assay type: functional
[62] = system: OVCAR-8; assay: Antiproliferative activity against human OVCAR8 cells; assay type: functional
[63] = system: SK-OV-3; assay: Antiproliferative activity against human SKOV3 cells; assay type: functional
[64] = system: HPAC; assay: Antiproliferative activity against HPAC; assay type: functional; settings: Homo sapiens
[65] = system: MIA PaCa-2; assay: Antiproliferative activity against human MIAPaCa2 cells; assay type: functional
[66] = system: PANC-1; assay: Antiproliferative activity against human PANC1 cells; assay type: functional
[67] = system: CWR22R; assay: Antiproliferative activity against human 22Rv1 cells; assay type: functional
[68] = system: DU-145; assay: Antiproliferative activity against human DU145 cells; assay type: functional
[69] = system: LNCaP; assay: Antiproliferative activity against human LNCAP cells; assay type: functional
[70] = Antiproliferative activity against human NCI-H660 cells; assay type: functional
[71] = system: PC-3; assay: Antiproliferative activity against human PC3 cells; assay type: functional
[72] = system: VCaP; assay: Antiproliferative activity against human VCaP cells; assay type: functional
[73] = system: 786-0; assay: Antiproliferative activity against human 786-0 cells; assay type: functional
[74] = system: A498; assay: Antiproliferative activity against human A498 cells; assay type: functional
[75] = system: ACHN; assay: Antiproliferative activity against human ACHN cells; assay type: functional
[76] = system: CAKI-1; assay: Antiproliferative activity against human Caki1 cells; assay type: functional
[77] = system: RXF 393; assay: Antiproliferative activity against human RXF393 cells; assay type: functional
[78] = system: SN12C; assay: Antiproliferative activity against human SN12C cells; assay type: functional
[79] = system: TK-10; assay: Antiproliferative activity against human TK10 cells; assay type: functional
[80] = system: UO-31; assay: Antiproliferative activity against human UO31 cells; assay type: functional
[81] = system: MDA-MB-468; assay: Antiproliferative activity against human MDA-MB-468 cells at 10 uM relative to control; assay type: functional
[82] = system: MDCK-II; assay: Antimigratory activity against MDCK2 cells assessed as inhibition of HGF-induced cell scattering pretreated for 18 hrs followed by HGF addition measured after 20 to 24 hrs by crystal violet staining-based assay; assay type: functional; settings: Canis lupus familiaris

Compound `Cc1nc(NC(=O)c2cncnc2)ccc1I` has an inhibition at 1 µM [1] of 249% and an inhibition at 10 µM [2] of 80%.

`O=C(Nc1ccc(-c2ccccc2)cn1)c1cncnc1` gave an inhibition at 1 µM [1] of 238%, an EC50 [3] of 0.074 µM and a GI50 [4] of 0.342 µM. It also gave a GI50 [5] of 0.072 µM, a GI50 [6] of 0.16 µM and a GI50 [7] of 0.037 µM. For the same compound, the GI50 [8] was 0.256 µM, the GI50 [9] was 0.029 µM and the GI50 [10] was over 10 µM. It also gave a GI50 [11] of 1.02 µM, a GI50 [12] of 0.11 µM and a GI50 [13] of 0.086 µM. It also gave a GI50 [14] of 0.37 µM, a GI50 [15] of 0.113 µM and a GI50 [16] of 0.047 µM. It also gave a GI50 [17] of 1.01 µM, a GI50 [18] of 0.04 µM and a GI50 [19] of 0.045 µM. The GI50 [20] was 0.038 µM, the GI50 [21] was 0.039 µM and the GI50 [22] was 0.046 µM. It also gave a GI50 [23] of 0.043 µM, a GI50 [24] of 0.053 µM and a GI50 [25] of 0.178 µM. It also gave a GI50 [26] of over 10 µM, a GI50 [27] of 0.026 µM and a GI50 [28] of 0.086 µM. The GI50 [29] was 0.055 µM, the GI50 [30] was 0.153 µM and the GI50 [31] was 0.26 µM. For the same compound, the GI50 [32] was 0.199 µM, the GI50 [33] was 0.053 µM and the GI50 [34] was 0.046 µM. The GI50 [35] was 0.297 µM, the GI50 [36] was 0.091 µM and the GI50 [37] was 0.042 µM. For the same compound, the GI50 [38] was 0.094 µM, the GI50 [39] was 0.204 µM and the GI50 [40] was 0.271 µM. For the same compound, the GI50 [41] was 0.121 µM, the GI50 [42] was 0.044 µM and the GI50 [43] was 0.077 µM. The GI50 [44] was 0.022 µM, the GI50 [45] was 0.053 µM and the GI50 [46] was 0.043 µM. For the same compound, the GI50 [47] was 0.069 µM, the GI50 [48] was 0.061 µM and the GI50 [49] was over 10 µM. For the same compound, the GI50 [50] was 0.096 µM, the GI50 [51] was 0.613 µM and the GI50 [52] was 0.66 µM. For the same compound, the GI50 [53] was 0.512 µM, the GI50 [54] was 0.041 µM and the GI50 [55] was 0.034 µM. It also gave an EC50 [56] of 0.074 µM, a GI50 [56] of 0.04 µM and a GI50 [57] of 0.869 µM. The GI50 [58] was 0.04 µM, the GI50 [59] was 0.047 µM and the GI50 [60] was over 10 µM. It also gave a GI50 [61] of 0.605 µM, a GI50 [62] of 0.24 µM and a GI50 [63] of 0.315 µM. The GI50 [64] was 0.154 µM, the GI50 [65] was 0.194 µM and the GI50 [66] was 0.212 µM. The GI50 [67] was 0.15 µM, the GI50 [68] was 0.305 µM and the GI50 [69] was 0.361 µM. The GI50 [70] was 0.135 µM, the GI50 [71] was 0.118 µM and the GI50 [72] was 0.246 µM. It also gave a GI50 [73] of 0.591 µM, a GI50 [74] of 0.048 µM and a GI50 [75] of 0.271 µM. It also gave a GI50 [76] of 0.091 µM, a GI50 [77] of 0.124 µM and a GI50 [78] of 0.155 µM. The GI50 [79] was 0.317 µM and the GI50 [80] was 2.11 µM.

In the case of `Cc1nc(NC(=O)c2cccc([N+](=O)[O-])c2)ccc1I`, the inhibition at 1 µM [1] is reported as 71 to 95.9%, the inhibition at 10 µM [3] is reported as 84% and the inhibition at 10 µM [81] is reported as 73%. It also gave an EC50 [82] of 3 µM.
